Results taken from US5734012A, “Cyclic motilin-like polypeptides with gastrointestinal motor stimulating activity” (Ohmeda Pharmaceutical Products Division Inc., priority 1996, dated 1998).
Positions of bridges follow the written chain, without caps; N, C: chain ends. Non-standard residues stand in square brackets, D forms with d. Residues, ends and D or L forms follow the SMILES beside them. *: point of attachment. X1 = C[N+](C)(C)[C@@H](Cc1ccccc1)C(=O)*; NMeF = CN[C@@H](Cc1ccccc1)C(=O)O

Legend:
[1] = In vitro stability testing in 2% hog kidney homogenate; format: in vitro ADME; settings: pig, kidney or brush border membranes, pH 7
Experimental: Like most small linear polypeptides, motilin is believed to be metabolized by the brush border cells of the kidney. Therefore, kidney homogenate was chosen as the model system for assessing the relative in vivo biostability of the peptides of this invention. All peptides to be studied were incubated in hog kidney (Pel Freeze, Inc., Rogers, Ark.) (2% w/v; final volume=4 mls; buffer=HEPES pH 7.0) at 25° C. […] In order to determine suitable incubation times and sampling intervals, two experiments were conducted with each polypeptide. The first run served as a rough estimate of peptide stability. All sampling was performed in duplicate. Sample volume was 180 μl. Sample clean-up was performed by addition of 20 μl of 100% TCA (final volume=200 μl; final TCA concentration=10%). The sample was vortexed from 5 to 10 seconds to ensure equilibration, then centrifuged to spin out the precipitated proteins. Analysis was carried out on a Waters HPLC system with autoinjector, a 5 μVydac C-18 analytical column, and a Waters 481 UV detector set at 214 nm. Injection volume was 80 μl. Initial solvent conditions were 20% acetonitrile / 80% (0.1%) TFA in Milli-Q water with a 35 minute gradient running to 63% acetonitrile / 37% (0.1%) TFA at 1 ml/min. Polypeptide substrate and metabolite peaks were ratioed to the internal standard and the duplicate sample ratios were averaged. The average ratio for the peptide substrate was expressed as a percentage and plotted versus time. First-order kinetics was assumed for data treatment. The rate of disappearance of the substrate was calculated using the Enzfitter program (Biosoft). Relative half-lives were determined from the relationship: […]

[2] = target: T1, motilin receptor (Oryctolagus cuniculus, UniProt G1T803); assay: Motilin receptor binding affinity (displacement of [125I-Tyr7,Nle13]motilin(porcine)); set-up: species or system rabbit; settings: negative logarithm of concentration displacing 50% of [125I-Tyr7,Nle13]motilin(porcine) bound to rabbit antral smooth muscle membranes; read-out: pIC50 (converted)
T1 construct: from tissue; host or cells: rabbit antral smooth muscle membranes
Experimental: The motilin receptor binding affinity of the peptides of this invention was determined by using the general procedure of Bormans, Peeters and Vantrappen, Regul. […] Fitting was performed using the iterative least-squares procedure of the SAS-software package (SAS Institute, Inc., Cary, N.C., USA).

[3] = target: rabbit duodenal smooth muscle strip (Oryctolagus cuniculus, UniProt G1T803); assay: Rabbit duodenal smooth muscle strip tissue bath assay (contractility); format: cell-based; settings: negative logarithm of dose giving 50% of maximal response to motilin; isotonic contraction of rabbit duodenum segments
Experimental: The experimental protocol consisted of an equilibration period of 1 hour; a challenge with 10^-4 M acetylcholine followed by a wash-out period; a cumulative dose-response curve of a compound with, at the end, the addition of 10^-7 M motilin; and finally 10^-4 M acetylcholine. If the final response to 10^-4 M acetylcholine differed by more than 5% from the initial response, the results were discarded.

[4] = in vivo; cited from earlier work

T1 sequence (G1T803 1-400): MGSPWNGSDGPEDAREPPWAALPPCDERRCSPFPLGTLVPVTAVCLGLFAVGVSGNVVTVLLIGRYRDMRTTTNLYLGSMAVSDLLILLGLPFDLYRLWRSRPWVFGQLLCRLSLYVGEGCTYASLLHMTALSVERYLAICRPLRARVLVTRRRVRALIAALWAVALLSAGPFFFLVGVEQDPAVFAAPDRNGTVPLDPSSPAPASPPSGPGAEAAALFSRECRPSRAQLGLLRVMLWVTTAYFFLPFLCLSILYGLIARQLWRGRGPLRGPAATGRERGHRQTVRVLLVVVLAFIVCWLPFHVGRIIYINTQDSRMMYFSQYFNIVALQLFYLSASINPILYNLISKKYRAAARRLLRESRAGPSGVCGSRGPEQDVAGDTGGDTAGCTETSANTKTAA
Sequence of rabbit duodenal smooth muscle strip (G1T803 1-400): as above

Row | Compound | half-life at 0.5 mg/ml [1] | IC50 [2] | pEC50 [3] | half-life (t1/2) [4]
1 | CC[C@H](C)[C@H](NC(=O)[C@@H]1CCCN1C(=O)[C@@H](NC(=O)[C@H](Cc1ccccc1)[N+](C)(C)C)C(C)C)C(=O)N[C@@H](Cc1ccccc1)C(=O)N[C@H](C(=O)N[C@@H](Cc1ccc(O)cc1)C(=O)NCC(=O)N[C@@H](CCC(=O)O)C(=O)N[C@H]1CC(=O)NCCCC[C@@H](C(=O)N[C@@H](CCCCN)C(N)=O)NC(=O)[C@H](CC(C)C)NC(=O)[C@@H](CCCNC(=N)N)NC(=O)[C@H](C)NC1=O)[C@@H](C)O [SEQ ID NO:19, cyclo^10,14 [ME3 N^+ Phe^1,Asp^10,Ala^11,D-Arg^12,Leu^13,Lys^14,Lys^15]pMOT(1-15) amide] (X1-VPIFTYGEDA[dR]LKK-NH2; lactam 9-13) | 85 min | 2.88 nM | 7.72 | –
2 | CC[C@H](C)[C@H](NC(=O)[C@@H]1CCCN1C(=O)[C@@H](NC(=O)[C@H](Cc1ccccc1)[N+](C)(C)C)C(C)C)C(=O)N[C@@H](Cc1ccccc1)C(=O)N[C@H](C(=O)N[C@@H](Cc1ccc(O)cc1)C(=O)NCC(=O)N[C@@H](CCC(=O)O)C(=O)N[C@H]1CC(=O)NCCCC[C@@H](C(N)=O)NC(=O)[C@H](CC(C)C)NC(=O)[C@H](CCCNC(=N)N)NC(=O)[C@H](C)NC1=O)[C@@H](C)O [SEQ ID NO:16, cyclo^10,14 [Me3 N^+ Phe^1,Asp^10,Ala^11 Leu^13,Lys^14]pMOT(1-14) amide] (X1-VPIFTYGEDARLK-NH2; lactam 9-13) | 103 min | 2.24 nM | 6.98 | –
3 | CC[C@H](C)[C@H](NC(=O)[C@@H]1CCCN1C(=O)[C@@H](NC(=O)[C@H](Cc1ccccc1)NC)C(C)C)C(=O)N[C@@H](Cc1ccccc1)C(=O)N[C@H](C(=O)N[C@@H](Cc1ccc(O)cc1)C(=O)NCC(=O)N[C@@H](CCC(=O)O)C(=O)N[C@H]1CCC(=O)NCCCC[C@@H](C(N)=O)NC(=O)[C@H](CC(C)C)NC(=O)[C@H](CCCNC(=N)N)NC(=O)[C@H](CCC(N)=O)NC1=O)[C@@H](C)O [SEQ ID NO:22, cyclo^10,14 [N-MePhe^1,Glu^10,Leu^13,Lys^14]pMOT(1-14) amide] (H-[NMeF]VPIFTYGEEQRLK-NH2; lactam 10-14) | 35 min | 0.912 nM | 8.73 | –
4 | CC[C@H](C)[C@H](NC(=O)[C@@H]1CCCN1C(=O)[C@@H](NC(=O)[C@H](Cc1ccccc1)NC)C(C)C)C(=O)N[C@@H](Cc1ccccc1)C(=O)N[C@H](C(=O)N[C@@H](Cc1ccc(O)cc1)C(=O)NCC(=O)N[C@@H](CCC(=O)O)C(=O)N[C@H]1CCC(=O)NCCCC[C@@H](C(=O)N[C@@H](CCCCN)C(N)=O)NC(=O)[C@H](CC(C)C)NC(=O)[C@H](CCCNC(=N)N)NC(=O)[C@H](C)NC1=O)[C@@H](C)O [SEQ ID NO:10, cyclo^10,14 [N-MePhe^1,Glu^10,Ala^11,Leu^13,Lys^14,Lys^15]pMOT(1-15) amide] (H-[NMeF]VPIFTYGEEARLKK-NH2; lactam 10-14) | 21 min | 0.631 nM | 7.96 | –
5 | CC[C@H](C)[C@H](NC(=O)[C@@H]1CCCN1C(=O)[C@@H](NC(=O)[C@H](Cc1ccccc1)NC)C(C)C)C(=O)N[C@@H](Cc1ccccc1)C(=O)N[C@H](C(=O)N[C@@H](Cc1ccc(O)cc1)C(=O)NCC(=O)N[C@@H](CCC(=O)O)C(=O)N[C@H]1CC(=O)NCCCC[C@@H](C(N)=O)NC(=O)[C@H](CC(C)C)NC(=O)[C@H](CCCNC(=N)N)NC(=O)[C@H](C)NC1=O)[C@@H](C)O [SEQ ID NO:17, cyclo^10,14 [N-MePhe^1,Asp^10,Ala^11,Leu^13,Lys^14]pMOT(1-14) amide] (H-[NMeF]VPIFTYGEDARLK-NH2; lactam 10-14) | 31 min | 0.575 nM | 7.95 | –
6 | CC[C@H](C)[C@H](NC(=O)[C@@H]1CCCN1C(=O)[C@@H](NC(=O)[C@H](Cc1ccccc1)[N+](C)(C)C)C(C)C)C(=O)N[C@@H](Cc1ccccc1)C(=O)N[C@H](C(=O)N[C@@H](Cc1ccc(O)cc1)C(=O)NCC(=O)N[C@@H](CCC(=O)O)C(=O)N[C@H]1CCC(=O)NCCCC[C@@H](C(=O)N[C@@H](CCCCN)C(N)=O)NC(=O)[C@H](CC(C)C)NC(=O)[C@H](CCCNC(=N)N)NC(=O)[C@H](C)NC1=O)[C@@H](C)O [SEQ ID NO:21, cyclo^10,14 [Me3 N^+ Phe^1,Glu^10,Ala^11,Leu^13,Lys^14,Lys^15]pMOT(1-15) amide] (X1-VPIFTYGEEARLKK-NH2; lactam 9-13) | 267 min | 1.35 nM | 7.76 | –
7 | CC[C@H](C)[C@H](NC(=O)[C@@H]1CCCN1C(=O)[C@@H](NC(=O)[C@@H](N)Cc1ccccc1)C(C)C)C(=O)N[C@@H](Cc1ccccc1)C(=O)N[C@H](C(=O)N[C@@H](Cc1ccc(O)cc1)C(=O)NCC(=O)N[C@@H](CCC(=O)O)C(=O)N[C@@H](CC(C)C)C(=O)N[C@@H](CCC(N)=O)C(=O)N[C@@H](CCCNC(=N)N)C(=O)N[C@@H](CCSC)C(=O)N[C@@H](CCC(N)=O)C(=O)N[C@@H](CCC(=O)O)C(=O)N[C@@H](CCCCN)C(=O)N[C@@H](CCC(=O)O)C(=O)N[C@@H](CCCNC(=N)N)C(=O)N[C@@H](CC(N)=O)C(=O)N[C@@H](CCCCN)C(=O)NCC(=O)N[C@@H](CCC(N)=O)C(=O)O)[C@@H](C)O [motilin] | – | – | – | 4.5 min
8 | CC[C@H](C)[C@H](NC(=O)[C@@H]1CCCN1C(=O)[C@@H](NC(=O)[C@H](Cc1ccccc1)NC)C(C)C)C(=O)N[C@@H](Cc1ccccc1)C(=O)N[C@H](C(=O)N[C@@H](Cc1ccc(O)cc1)C(=O)NCC(=O)N[C@@H](CCC(=O)O)C(=O)N[C@H]1CCC(=O)NCCCC[C@@H](C(=O)N[C@@H](CCCCN)C(N)=O)NC(=O)[C@H](CC(C)C)NC(=O)[C@@H](CCCNC(=N)N)NC(=O)[C@H](C)NC1=O)[C@@H](C)O [SEQ ID NO:15, cyclo^10,14 [N-MePhe^1,Glu^10,Ala^11,D-Arg^12,Leu^13,Lys^14,Lys^15]pMOT(1-15) amide] (H-[NMeF]VPIFTYGEEA[dR]LKK-NH2; lactam 10-14) | 39 min | 1.02 nM | 7.68 | –
9 | CC[C@H](C)[C@H](NC(=O)[C@@H]1CCCN1C(=O)[C@@H](NC(=O)[C@H](Cc1ccccc1)NC)C(C)C)C(=O)N[C@@H](Cc1ccccc1)C(=O)N[C@H](C(=O)N[C@@H](Cc1ccc(O)cc1)C(=O)NCC(=O)N[C@@H](CCC(=O)O)C(=O)N[C@H]1CC(=O)NCCCC[C@@H](C(=O)N[C@@H](CCCCN)C(N)=O)NC(=O)[C@H](CC(C)C)NC(=O)[C@@H](CCCNC(=N)N)NC(=O)[C@H](C)NC1=O)[C@@H](C)O [SEQ ID NO:12, cyclo^10,14 [N-MePhe^1,Asp^10,Ala^11,D-Arg^12,Leu^13,Lys^14,Lys^15]pMOT(1-15) amide] (H-[NMeF]VPIFTYGEDA[dR]LKK-NH2; lactam 10-14) | 16 min | 1.74 nM | 7.81 | –
10 | CC[C@H](C)[C@H](NC(=O)[C@@H]1CCCN1C(=O)[C@@H](NC(=O)[C@H](Cc1ccccc1)[N+](C)(C)C)C(C)C)C(=O)N[C@@H](Cc1ccccc1)C(=O)N[C@H](C(=O)N[C@@H](Cc1ccc(O)cc1)C(=O)NCC(=O)N[C@@H](CCC(=O)O)C(=O)N[C@H]1CCC(=O)NCCCC[C@@H](C(=O)N[C@@H](CCCCN)C(N)=O)NC(=O)[C@H](CC(C)C)NC(=O)[C@@H](CCCNC(=N)N)NC(=O)[C@H](C)NC1=O)[C@@H](C)O [SEQ ID NO:20, cyclo^10,14 [Me3 N^+ Phe^1,Glu^10,Ala^11,D-Arg^12,Leu^13,Lys^14,Lys^15]pMOT(1-15) amide] (X1-VPIFTYGEEA[dR]LKK-NH2; lactam 9-13) | 49 min | 1.55 nM | 7.34 | –
